Test results from the NIST ThermoML archive (doi:10.1021/acs.jced.6b00350).
Several values for one entry are separate records, joined by “and”; a condition that tells them apart may be missing. Equal values may be shown once.

Conditions: Liquid, Hot wire method

FC(F)CC(F)(F)F [1,1,1,3,3-pentafluoropropane]
Conditions	thermal conductivity
173.21 K, 150 kPa	0.1235 W/m/K and 0.1232 W/m/K
173.3 K, 132 kPa	0.1239 W/m/K
173.3 K, 133 kPa	0.1234 W/m/K
173.3 K, 148 kPa	0.1237 W/m/K and 0.1231 W/m/K
173.41 K, 150 kPa	0.1234 W/m/K
173.51 K, 135 kPa	0.1234 W/m/K and 0.1231 W/m/K
173.51 K, 148 kPa	0.1235 W/m/K and 0.1238 W/m/K
173.66 K, 150 kPa	0.1231 W/m/K
173.75 K, 136 kPa	0.1237 W/m/K
173.75 K, 137 kPa	0.1236 W/m/K
173.75 K, 148 kPa	0.1236 W/m/K
173.91 K, 150 kPa	0.1233 W/m/K and 0.1231 W/m/K
174.01 K, 138 kPa	0.1235 W/m/K
174.01 K, 140 kPa	0.1235 W/m/K
174.01 K, 148 kPa	0.1235 W/m/K
174.01 K, 149 kPa	0.1235 W/m/K
174.21 K, 150 kPa	0.1234 W/m/K
174.29 K, 140 kPa	0.1233 W/m/K
174.29 K, 141 kPa	0.1231 W/m/K
174.3 K, 149 kPa	0.1239 W/m/K and 0.1236 W/m/K
181.78 K, 159 kPa	0.1224 W/m/K and 0.1223 W/m/K
182.06 K, 158 kPa	0.1227 W/m/K and 0.1222 W/m/K
182.37 K, 158 kPa	0.1222 W/m/K and 0.1225 W/m/K
182.5 K, 266 kPa	0.1225 W/m/K
182.5 K, 269 kPa	0.1226 W/m/K
182.51 K, 5857 kPa	0.1236 W/m/K
182.51 K, 70521 kPa	0.1336 W/m/K
182.52 K, 5874 kPa	0.1237 W/m/K
182.52 K, 12298 kPa	0.1248 W/m/K
182.52 K, 12334 kPa	0.1252 W/m/K
182.53 K, 18829 kPa	0.126 W/m/K
182.53 K, 18849 kPa	0.126 W/m/K
182.53 K, 32455 kPa	0.1283 W/m/K
182.54 K, 25387 kPa	0.1271 W/m/K
182.54 K, 25434 kPa	0.1275 W/m/K
182.54 K, 63262 kPa	0.1331 W/m/K and 0.133 W/m/K
182.55 K, 32519 kPa	0.128 W/m/K
182.6 K, 54974 kPa	0.1317 W/m/K
182.6 K, 54979 kPa	0.1314 W/m/K
182.64 K, 47632 kPa	0.1303 W/m/K
182.64 K, 47638 kPa	0.1309 W/m/K
182.68 K, 39974 kPa	0.1293 W/m/K
182.68 K, 39979 kPa	0.1294 W/m/K
182.7 K, 158 kPa	0.1222 W/m/K
182.71 K, 158 kPa	0.1222 W/m/K
182.81 K, 266 kPa	0.1225 W/m/K
182.81 K, 278 kPa	0.1224 W/m/K
182.81 K, 5870 kPa	0.1236 W/m/K
182.81 K, 5874 kPa	0.1234 W/m/K
182.81 K, 70507 kPa	0.134 W/m/K
182.81 K, 70514 kPa	0.134 W/m/K
182.82 K, 12333 kPa	0.1247 W/m/K
182.83 K, 18827 kPa	0.1259 W/m/K
182.83 K, 18835 kPa	0.1259 W/m/K
182.83 K, 25436 kPa	0.1272 W/m/K
182.84 K, 25420 kPa	0.127 W/m/K
182.84 K, 32528 kPa	0.1281 W/m/K
182.84 K, 32589 kPa	0.128 W/m/K
182.85 K, 63255 kPa	0.1331 W/m/K
182.91 K, 54970 kPa	0.1314 W/m/K
182.92 K, 54983 kPa	0.1316 W/m/K
182.95 K, 47626 kPa	0.1304 W/m/K
182.95 K, 47631 kPa	0.1305 W/m/K
182.99 K, 39966 kPa	0.129 W/m/K
182.99 K, 39976 kPa	0.1291 W/m/K
183.06 K, 158 kPa	0.1223 W/m/K and 0.1222 W/m/K
183.13 K, 269 kPa	0.1224 W/m/K
183.14 K, 277 kPa	0.1224 W/m/K
183.14 K, 5876 kPa	0.1234 W/m/K
